Experiments:
[1] = biological target: human serum albumin (HSA) (Homo sapiens, UniProt P02768); assay: Evaluation of binding to albumin (HSA solution, PBS control)
In short: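 Radiolabelled compound incubated with human albumin in PBS (PBS alone as control), then spun through a Sephadex G-100 or G-50 spin column at 1500×g, 4° C., 2 min. Radioactivity of column and eluate counted by gamma counter; albumin-bound compound passes into the eluate.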

[2] = tested on: PC-3 tumor-transplanted mouse; assay: Internal radioactivity distribution using PC-3 tumor-transplanted mouse; assay type: in vivo
Experimental: (§1) The animal test was performed in compliance with the guidelines of Kyoto University Animal Experiment Committee. Male CB17/IcrJcl-Prkdc^scid mice were purchased from CLEA Japan, Inc. The animals were kept under 12 h/12 h, day/night cycle conditions and fed ad libitum with food and water. LNCaP cells (1.0×10^7 cells/mouse) or PC-3 cells (1.0×10^7 cells/mouse) were suspended in a mixture of PBS and Matrigel manufactured by Corning Life Sciences (1:1, 150 μL) and the suspension was subcutaneously transplanted to the right shoulder of mice under isoflurane anesthesia. Thereafter, the mice were kept for 40 to 60 days.
LNCaP or PC-3 tumor-implanted mice were administered saline solutions (185 kBq, 100 μL) of [^111In]In-PSMA-DA1 or [^111In]In-PSMA-DB from the tail vein (n=3 each). Mice were euthanized 1, 4, 24, 48, 96, and 192 hours after administration. Thereafter, blood and each organ were recovered, and the mass and radioactivity of the organs were measured.
The percentage (% ID) of the radioactivity amount to the administered radioactivity amount (injected dose) is shown as the value (% ID/g) divided by the blood mass or the organ mass (g).
as §1, with “LNCaP cells (4.3×10^6 cells/mouse) or” for “LNCaP cells (1.0×10^7 cells/mouse) or”, “PC-3 cells (3.3×10^6 cells/mouse) were” for “PC-3 cells (1.0×10^7 cells/mouse) were”, “shoulder of CB17/IcrJcl-Prkdc^scid mice under” for “shoulder of mice under”
Mice were euthanized 1, 4, 24, 48, 96, and 192 hours after administration. Thereafter, blood and each organ were recovered, and the mass and radioactivity of the organs were measured.
The results are shown in Table 13 (Mean value±standard deviation, n=3).

[3] = tested on: LNCaP tumor-transplanted mouse; assay: Internal radioactivity distribution using LNCaP tumor-transplanted mouse; assay type: in vivo
In short: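 Male SCID mice bearing subcutaneous LNCaP or PC-3 xenografts (40–60 days) received the 111In-labelled compound i.v. via tail vein (185–259 kBq in saline; n=2–3). Blood and organs collected at 1 to 192 hours post-dose, weighed and counted. Uptake expressed as %ID/g.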

[4] = 24 h after administration, PC-3 tumor-transplanted mice

Chain of human serum albumin (HSA) (P02768 25-609): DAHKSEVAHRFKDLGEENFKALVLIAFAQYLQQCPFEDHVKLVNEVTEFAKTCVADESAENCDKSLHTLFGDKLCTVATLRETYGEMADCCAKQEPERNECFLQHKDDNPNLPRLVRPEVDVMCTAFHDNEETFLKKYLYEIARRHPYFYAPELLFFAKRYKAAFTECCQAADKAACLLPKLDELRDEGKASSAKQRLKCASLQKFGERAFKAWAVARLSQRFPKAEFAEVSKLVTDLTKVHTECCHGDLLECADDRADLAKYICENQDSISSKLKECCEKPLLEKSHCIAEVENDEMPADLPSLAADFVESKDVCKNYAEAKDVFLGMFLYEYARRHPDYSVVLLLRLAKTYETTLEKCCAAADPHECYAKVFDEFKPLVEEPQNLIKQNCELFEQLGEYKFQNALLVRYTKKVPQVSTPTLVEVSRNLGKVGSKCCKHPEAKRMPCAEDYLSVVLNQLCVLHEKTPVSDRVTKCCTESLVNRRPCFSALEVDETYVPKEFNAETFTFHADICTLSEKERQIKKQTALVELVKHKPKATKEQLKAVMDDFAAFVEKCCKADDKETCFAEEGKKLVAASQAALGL

SMILES: O=C([O-])CN1CCN(C(CCC(=O)NCCCC[C@H](NC(=O)N[C@@H](CCC(=O)O)C(=O)O)C(=O)O)C(=O)[O-])CCN(CC(=O)[O-])CCN(C(CCC(=O)N[C@@H](CCCCNC(=O)CCCc2ccc(I)cc2)C(=O)O)C(=O)[O-])CC1.[111In+3] (some centres unmarked) [[^111In]In-PSMA-DA1]
- radioactivity in the eluate (in words) ([1]; left to stand in HSA solution (45 mg/mL)): significantly higher
- radioactivity in the eluate (in words) ([1]; left to stand in PBS): no significant radioactivity
- Blood [2, 4]: 5.73 ± 0.67 % ID/g
- Brain [2, 4]: 0.17 ± 0.04 % ID/g
- Heart [2, 4]: 1.90 ± 0.22 % ID/g
- Intestine [2, 4]: 1.37 ± 0.22 % ID/g
- Kidney [2, 4]: 9.56 ± 1.55 % ID/g
- Liver [2, 4]: 1.60 ± 0.12 % ID/g
- Lung [2, 4]: 4.74 ± 0.67 % ID/g
- Muscle [2, 4]: 0.59 ± 0.02 % ID/g
- PC-3 Tumor [2, 4]: 2.69 ± 0.30 % ID/g
- Pancreas [2, 4]: 1.37 ± 0.04 % ID/g
- Spleen [2, 4]: 2.52 ± 0.12 % ID/g
- Stomach (% ID) [2, 4]: 0.27 ± 0.08 % ID
- accumulation at the PC-3 tumor compared with the LNCaP tumor at the same time point (in words) ([2]; mouse, in vivo): less accumulated
- Blood ([3]; 1 h after administration): 31.1 ± 3.99 % ID/g
- Brain ([3]; 1 h after administration): 0.56 ± 0.06 % ID/g
- Heart ([3]; 1 h after administration): 7.93 ± 2.10 % ID/g
- Intestine ([3]; 1 h after administration): 2.63 ± 0.42 % ID/g
- Kidney ([3]; 1 h after administration): 34.3 ± 7.79 % ID/g
- LNCaP Tumor ([3]; 1 h after administration): 9.41 ± 2.30 % ID/g
- Liver ([3]; 1 h after administration): 4.95 ± 0.27 % ID/g
- Lung ([3]; 1 h after administration): 16.2 ± 3.86 % ID/g
- Muscle ([3]; 1 h after administration): 2.02 ± 0.17 % ID/g
- Pancreas ([3]; 1 h after administration): 3.34 ± 0.40 % ID/g
- Spleen ([3]; 1 h after administration): 8.56 ± 2.90 % ID/g
- Stomach (% ID) ([3]; 1 h after administration): 0.52 ± 0.02 % ID
- Blood ([3]; 4 h after administration): 26.9 ± 9.56 % ID/g
- Brain ([3]; 4 h after administration): 0.52 ± 0.15 % ID/g
- Heart ([3]; 4 h after administration): 7.10 ± 1.82 % ID/g
- Intestine ([3]; 4 h after administration): 3.17 ± 0.73 % ID/g
- Kidney ([3]; 4 h after administration): 63.5 ± 13.9 % ID/g
- LNCaP Tumor ([3]; 4 h after administration): 12.1 ± 4.04 % ID/g
- Liver ([3]; 4 h after administration): 4.20 ± 1.51 % ID/g
- Lung ([3]; 4 h after administration): 17.9 ± 6.62 % ID/g
- Muscle ([3]; 4 h after administration): 2.15 ± 1.09 % ID/g
- Pancreas ([3]; 4 h after administration): 2.48 ± 1.03 % ID/g
- Spleen ([3]; 4 h after administration): 9.52 ± 4.28 % ID/g
- Stomach (% ID) ([3]; 4 h after administration): 0.51 ± 0.05 % ID
- Blood ([3]; 24 h after administration): 14.0 ± 3.27 % ID/g
- Brain ([3]; 24 h after administration): 0.36 ± 0.11 % ID/g
- Heart ([3]; 24 h after administration): 4.26 ± 0.89 % ID/g
- Intestine ([3]; 24 h after administration): 1.53 ± 0.44 % ID/g
- Kidney ([3]; 24 h after administration): 27.1 ± 9.25 % ID/g
- LNCaP Tumor ([3]; 24 h after administration): 12.6 ± 2.15 % ID/g
- Liver ([3]; 24 h after administration): 2.64 ± 0.38 % ID/g
- Lung ([3]; 24 h after administration): 10.5 ± 2.58 % ID/g
- Muscle ([3]; 24 h after administration): 1.38 ± 0.39 % ID/g
- Pancreas ([3]; 24 h after administration): 2.12 ± 0.49 % ID/g
- Spleen ([3]; 24 h after administration): 6.01 ± 2.33 % ID/g
- Stomach (% ID) ([3]; 24 h after administration): 0.40 ± 0.09 % ID
- retention in blood ([3]; 24 hours after administration): 14.000 % ID/g
- Blood ([3]; 48 h after administration): 4.18 ± 0.56 % ID/g
- Brain ([3]; 48 h after administration): 0.16 ± 0.01 % ID/g
- Heart ([3]; 48 h after administration): 1.66 ± 0.23 % ID/g
- Intestine ([3]; 48 h after administration): 0.96 ± 0.25 % ID/g
- Kidney ([3]; 48 h after administration): 9.04 ± 2.70 % ID/g
- LNCaP Tumor ([3]; 48 h after administration): 8.82 ± 1.26 % ID/g
- Liver ([3]; 48 h after administration): 1.59 ± 0.14 % ID/g
- Lung ([3]; 48 h after administration): 4.17 ± 0.26 % ID/g
- Muscle ([3]; 48 h after administration): 0.54 ± 0.10 % ID/g
- Pancreas ([3]; 48 h after administration): 1.06 ± 0.12 % ID/g
- Spleen ([3]; 48 h after administration): 4.28 ± 0.79 % ID/g
- Stomach (% ID) ([3]; 48 h after administration): 0.25 ± 0.05 % ID
- tumor/kidney ratio ([3]; 48 hours after administration): exceeded 1
- Blood ([3]; 96 h after administration): 0.76 ± 0.58 % ID/g
- Brain ([3]; 96 h after administration): 0.07 ± 0.03 % ID/g
- Heart ([3]; 96 h after administration): 0.75 ± 0.33 % ID/g
- Intestine ([3]; 96 h after administration): 0.75 ± 0.44 % ID/g
- Kidney ([3]; 96 h after administration): 3.51 ± 2.54 % ID/g
- LNCaP Tumor ([3]; 96 h after administration): 5.98 ± 1.87 % ID/g
- Liver ([3]; 96 h after administration): 1.10 ± 0.27 % ID/g
- Lung ([3]; 96 h after administration): 1.55 ± 0.86 % ID/g
- Muscle ([3]; 96 h after administration): 0.23 ± 0.09 % ID/g
- Pancreas ([3]; 96 h after administration): 0.64 ± 0.24 % ID/g
- Spleen ([3]; 96 h after administration): 2.42 ± 1.54 % ID/g
- Stomach (% ID) ([3]; 96 h after administration): 0.08 ± 0.03 % ID
- Blood ([3]; 192 h after administration): 0.16 ± 0.03 % ID/g
- Brain ([3]; 192 h after administration): 0.05 ± 0.01 % ID/g
- Heart ([3]; 192 h after administration): 0.41 ± 0.08 % ID/g
- Intestine ([3]; 192 h after administration): 0.12 ± 0.03 % ID/g
- Kidney ([3]; 192 h after administration): 1.33 ± 0.42 % ID/g
- LNCaP Tumor ([3]; 192 h after administration): 4.69 ± 1.32 % ID/g
- Liver ([3]; 192 h after administration): 0.69 ± 0.12 % ID/g
- Lung ([3]; 192 h after administration): 0.75 ± 0.22 % ID/g
- Muscle ([3]; 192 h after administration): 0.15 ± 0.05 % ID/g
- Pancreas ([3]; 192 h after administration): 0.46 ± 0.08 % ID/g
- Spleen ([3]; 192 h after administration): 2.69 ± 0.83 % ID/g
- Stomach (% ID) ([3]; 192 h after administration): 0.05 ± 0.01 % ID

Reference: US20240174622A1, “COMPOUND AND RADIOACTIVE LABELING COMPOUND” (NIHON MEDI-PHYSICS CO., LTD., priority 2021, published 2024)
